Source: patent publication US20240335453A1, “METALLO-ß-LACTAMASE INHIBITORS” (University of KwaZulu-Natal, priority 2021, published 2024)
Converted amounts (≈) assume the structure as drawn. “And” between values parts separate entries of the source, which are not always exact repeats. Identical values can stand only once. “Also recorded” adds a separate entry of the source. Like-named read-outs stand apart in the source and are kept apart here.

How the values were obtained:
[1] = tested on: K. pneumoniae IMP-8; assay: Time-kill assay; format: cell-based; conditions: BP1 in combination with meropenem
Protocol: (§1) Time-kill studies were performed according to previously published methods, including those described by CLSI document M26-A. E. coli NDM-1, K. pneumoniae IMP-8 and K. pneumoniae NDM were the strains selected for this assay. Briefly, freshly prepared colonies were re-suspended in 10 mL CAMHB and incubated in a shaking incubator (37° C., 180 rpm) for 1 to 2 h. Cultures were then diluted to a 0.5 McFarland standard (approximately 10^8 CFU/mL) and further diluted 1:20 in CAMHB so that the starting inoculum was approximately 5×10^6 CFU/mL. […] A growth control with no antibiotic was also included. The starting inoculum was determined from the growth control tube immediately after dilution and was recorded as the count at time zero. After addition of antibiotics, the starting inoculum was approximately 1×10^6 to 5×10^6 CFU/mL. Tubes were incubated in a shaking incubator at 37° C., 180 rpm, and viability counts were performed at 1, 2, 4, 6, 8 and 24 h by removing 100 μL of the culture, diluting as appropriate, and plating 100 μL on MHA. MHA plates were incubated at 37° C. for at least 18 h. Colonies were counted, and the results were recorded as the number of CFU/mL. A ≥3−log10 decrease in the number of CFU/mL was considered bactericidal.

[2] = tested on: E. coli NDM-1; assay: Time-kill assay; format: cell-based; conditions: BP1 in combination with meropenem
Protocol: as §1

[3] = tested on: E. coli NDM-1; assay: MIC broth microdilution checkerboard; format: cell-based, Escherichia coli
Protocol: (§2) Briefly, two-fold dilutions of each meropenem/BP or meropenem/TG from 0.015 to 16 μg/mL and 1 to 64 μg/mL respectively were made in cation adjusted Mueller-Hinton Broth (CAMHB) in a 96-well microtitre plate using the checkerboard method (King et al). A 0.5 McFarland-standardized bacterial inoculum was added to make a total volume of 100 μl in each microtitre well. The initial inoculum density was determined by plating out MHA plates for MBC testing. The plates were then incubated for 18-22 h at 37° C. under aerobic conditions. The MIC was determined as the lowest concentration at which there was no visible growth. Control wells included the amount of solvent used in dissolving drug candidates.
(§3) To investigate the potential activity of BP1 and TG1 as MBLs inhibitors well characterized carbapenem-resistant bacteria expressing known class B carbapenemases were used. MICs using the broth micro-dilution method was conducted according to CLSI guidelines (Clinical and Laboratory Standards Institute. Performance Standards for Antimicrobial Susceptibility Testing: Twenty-Fourth Informational Supplement M100-S24. CLSI, Wayne, PA, USA, 2014) using cation adjusted Mueller-Hinton broth for meropenem, alone (See table 4) and in combination with the metal chelating agents BP1 and TG1 at variable concentrations (two-fold dilutions from 1 to 64 μg/mL). Escherichia coli ATCC 25922 was used as the control.

[4] = tested on: K. pneumoniae IMP-8; assay: MIC broth microdilution checkerboard; format: cell-based; conditions: Klebsiella pneumoniae
Protocol: as §2, §3

[5] = tested on: K. pneumonia VIM-1; assay: MIC broth microdilution checkerboard; format: cell-based; conditions: Klebsiella pneumoniae
Protocol: as §2, §3

[6] = tested on: E. cloacae VIM-1; assay: MIC broth microdilution checkerboard; format: cell-based; conditions: Enterobacter cloacae
Protocol: as §2, §3

[7] = tested on: K. pneumonia IMP-1; assay: MIC broth microdilution checkerboard; format: cell-based; conditions: Klebsiella pneumoniae
Protocol: as §2, §3

[8] = tested on: E. cloacae IMP-8; assay: MIC broth microdilution checkerboard; format: cell-based; conditions: Enterobacter cloacae
Protocol: as §2, §3

[9] = tested on: E. coli NDM-4; assay: MIC broth microdilution checkerboard; format: cell-based; conditions: Escherichia coli
Protocol: as §2, §3

[10] = tested on: E. coli IMP-1; assay: MIC broth microdilution checkerboard; format: cell-based; conditions: Escherichia coli
Protocol: as §2, §3

[11] = tested on: P. rettgeri NDM-1; assay: MIC broth microdilution checkerboard; format: cell-based; conditions: Providencia rettgeri
Protocol: as §2, §3

[12] = tested on: HepG2 cells; assay: Lactate dehydrogenase (LDH) cytotoxicity assay; format: cell-based, Human; conditions: for Induction of necrosis / Extracellular lactate dehydrogenase (LDH) level: HepG2 cells; for Induction of necrosis: from LDH; for Extracellular lactate dehydrogenase (LDH) level: relative to control
Protocol: Human hepatoma (HepG2) cells were cultured in Dulbecco minimum essential medium (Lonza Biowhittaker, Switzerland) supplemented with 1% pen/strep/fungizone, 1% L-glutamine and 10% fetal bovine serum. The cells were maintained under the atmosphere of 5% CO2 at 37° C. Once 80% confluence had been reached, cells were enzymatically detached (trypsin) and utilized for the cell viability assay. The lactate dehydrogenase (LDH) cytotoxicity detection kit (Roche, Mannheim, Germany) was used to measure the cell damage and cytotoxicity in MPR-SMN-05-treated HepG2 cells. Extracellular LDH activity was quantified by incubating […] substrate solution (diaphorase/NAD+; INT/sodium lactate) in a 96 well microtiter plate at room temperature for 30 min. The assay was performed in triplicate. Optical density (OD) was measured following incubation at 500 nm using a spectrophotometric plate reader (Bio-Tek uQuant, Winooski, VT).

[13] = tested on: HepG2 cells; assay: Cell viability (MTT) assay; format: cell-based, Human; conditions: for IC50: Homo sapiens, HepG2, 24 h; for HepG2 cell viability, effect in words: relative to control
Protocol: Human hepatoma (HepG2) cells were cultured in Dulbecco minimum essential medium (Lonza Biowhittaker, Switzerland) supplemented with 1% pen/strep/fungizone, 1% L-glutamine and 10% fetal bovine serum. The cells were maintained under the atmosphere of 5% CO2 at 37° C. Once 80% confluence had been reached, cells were enzymatically detached (trypsin) and utilized for the cell viability assay. The effect of MPR-SMN-05 on cell viability was determined using the 3-(4,5-Dimethyl-2-thiazolyl)-2,5-diphenyl-2H-tetrazolium bromide (MTT) assay according to previously reported studies by Mosmann (Mosmann T. Rapid colorimetric assay for cellular growth and survival: application to proliferation and cytotoxicity assays. Journal of immunological methods 1983; 65: 55-63). Approximately 15, 000 cells were seeded in a 96-well microtiter plate and allowed to adhere overnight. The cells were subsequently exposed to a range of 0 to 250 mg/L MPR-SMN-05 (experiments were done in triplicate). After incubation with MPR-SMN-05 for 24 h, cells were washed twice with 0.1 M phosphate buffer saline (PBS) and incubated with 20 μl MTT salt solution (5 mg/ml in 0.1 M PBS) and 100 μl complete culture medium (CCM) (37° C., 4 h). The MTT salt solution was then discarded and […] of DMSO was added to each well and incubated (37° C., 1 h) to dissolve the formazan crystals. The optical density was measured at 570/690 nm employing a spectrophotometer (Bio-Tek uQuant, Winooski, VT). The results were expressed as percentage cell viability vs. log concentration of MPR-SMN-05, from which the half maximal inhibitory concentration (IC50) was determined. Control treatments were represented by an equal amount of DMSO solvent in CCM without the test compound.

[14] = tested on: Klebsiella pneumoniae 449; assay: MIC broth microdilution checkerboard; format: cell-based; conditions: read-out: MIC, Meropenem administered alone
Protocol: as §2

## CCN1CCN(CC)CCN(C(CC(=O)NC2C(=O)N3C(C(=O)[O-])=C(C[n+]4ccccc4)CSC23)C(=O)OC)CC1 (stereo not drawn) [BP1]
[1]
  Time-kill kinetics outcome: bactericidal activity
[2]
  Time-kill kinetics outcome: bactericidal activity
[3]; Escherichia coli, NDM1, E. coli NDM-1, read-out: MIC BP1 alone
  MIC: > 64 µg/mL and > 84 µM
[4]; IMP8, K. pneumoniae IMP-8, read-out: MIC BP1 alone
  MIC: > 64 µg/mL and > 84 µM
[5]; VIM1, K. pneumonia VIM-1, read-out: MIC BP1 alone
  MIC: > 64 µg/mL and > 84 µM
[6]; VIM1, E. cloacae VIM-1, read-out: MIC BP1 alone
  MIC: > 64 µg/mL and > 84 µM
[7]; IMP1, K. pneumonia IMP-1, read-out: MIC BP1 alone
  MIC: > 64 µg/mL and > 84 µM
[8]; IMP8, E. cloacae IMP-8, read-out: MIC BP1 alone
  MIC: > 64 µg/mL and > 84 µM
[9]; NDM4, E. coli NDM-4, read-out: MIC BP1 alone
  MIC: > 64 µg/mL and > 84 µM
[10]; IMP1, read-out: MIC BP1 alone
  MIC: > 64 µg/mL and > 84 µM
[11]; NDM1, P. rettgeri NDM-1, read-out: MIC BP1 alone
  MIC: > 64 µg/mL and > 84 µM
[12]
  Induction of necrosis: does not induce necrosis
  Extracellular lactate dehydrogenase (LDH) level: significantly reduced at all concentrations
[12]; in vitro, cell lines
  Cytotoxicity, overall statement: safe at the active concentrations
[13]
  IC50: 60 µg/mL (≈ 102 µM)
  HepG2 cell viability, effect in words: dose-dependent decrease in cell viability was observed with a significant decrease occurring at 100 and 200 μg/ml

## C/C=C(/C(=O)N[C@@H]1C(=O)N2C(C(=O)O)=C(CSC(=O)c3ccco3)CS[C@H]12)c1csc(NC(=O)CC(C)N2CCN(CC)CCN(CC)CC2)n1 (stereo partly drawn) [BP6]
[12]
  Induction of necrosis: does not induce necrosis
  Extracellular lactate dehydrogenase (LDH) level: significantly reduced at all concentrations
[13]
  IC50: 51.8 µg/mL (≈ 68.2 µM)
  HepG2 cell viability, effect in words: dose dependent increase in the cell viability; also recorded: only significantly altered at 200 μg/ml

## CCC1=C(C(=O)O)N2C(=O)[C@@H](NC(=O)/C(=N/C)c3csc(NC(=O)CC(C)N4CCN(CC)CCN(CC)CC4)n3)[C@H]2SC1 (stereo partly drawn) [BP10]
[12]
  Induction of necrosis: does not induce necrosis
  Extracellular lactate dehydrogenase (LDH) level: remained unaffected at 1 μg/ml; also recorded: significantly reduced at 8-200 μg/ml
[13]
  IC50: 62 µg/mL (≈ 95.5 µM)
  HepG2 cell viability, effect in words: not significantly altered at 50-100 μg/ml; also recorded: significantly reduced at 200 μg/ml

## CCN1CCN(CC)CCN(C(CC(=O)Nc2nc(/C(=C/CC(=O)O)C(=O)N[C@@H]3C(=O)N4C(C(=O)O)=CCS[C@H]34)cs2)C(=O)OC)CC1 (stereo partly drawn) [BP14]
[12]
  Induction of necrosis: does not induce necrosis
  Extracellular lactate dehydrogenase (LDH) level: significantly reduced at 8 μg/ml; also recorded: remained unaffected at 1 μg/ml and 10-200 μg/ml
[13]
  IC50: 42.3 µg/mL (≈ 59.8 µM)
  HepG2 cell viability, effect in words: reduced cell viability at 1 μg/ml and 10-200 μg/ml; also recorded: proliferation occurred at 8 μg/ml

## C[C@@H](O)[C@H]1C(=O)N2C(C(=O)O)=C(S[C@@H]3CN[C@H](C(=O)N(C)C)C3)[C@H](C)[C@H]12 [Meropenem]
[14]
  MIC: > 32 µg/mL
[3]; Escherichia coli, NDM1, E. coli NDM-1, read-out: MIC MEM alone
  MIC: > 16 µg/mL and > 42 µM
[3]; NDM1, Escherichia coli NDM-1 (Table 6 footnote), read-out: MIC, Meropenem administered alone
  MIC: > 32 µg/mL
[4]; IMP8, K. pneumoniae IMP-8, read-out: MIC MEM alone
  MIC: 8 µg/mL and 21 µM
[5]; VIM1, K. pneumonia VIM-1, read-out: MIC MEM alone
  MIC: > 16 µg/mL and > 42 µM
[6]; VIM1, E. cloacae VIM-1, read-out: MIC MEM alone
  MIC: 8 µg/mL and 21 µM
[7]; IMP1, K. pneumonia IMP-1, read-out: MIC MEM alone
  MIC: > 16 µg/mL and > 42 µM
[8]; IMP8, E. cloacae IMP-8, read-out: MIC MEM alone
  MIC: 8 µg/mL and 21 µM
[9]; NDM4, E. coli NDM-4, read-out: MIC MEM alone
  MIC: > 16 µg/mL and > 42 µM
[10]; IMP1, read-out: MIC MEM alone
  MIC: 16 µg/mL and 42 µM
[11]; NDM1, P. rettgeri NDM-1, read-out: MIC MEM alone
  MIC: > 16 µg/mL and > 42 µM

## O=C(O)CN1CCN(CC(=O)O)CCN(CC(=O)O)CC1 [TG1, 1,4,7-triazacyclononane-1,4,7-triacetic acid]
[3]; Escherichia coli, NDM1, read-out: MIC TG1 alone
  MIC: > 64 µg/mL and > 131 µM
[4]; IMP8, read-out: MIC TG1 alone
  MIC: > 64 µg/mL and > 131 µM
[5]; VIM1, read-out: MIC TG1 alone
  MIC: > 64 µg/mL and > 131 µM
[6]; VIM1, read-out: MIC TG1 alone
  MIC: > 64 µg/mL and > 131 µM
[7]; IMP1, read-out: MIC TG1 alone
  MIC: > 64 µg/mL and > 131 µM
[8]; IMP8, read-out: MIC TG1 alone
  MIC: > 64 µg/mL and > 131 µM
[9]; NDM4, read-out: MIC TG1 alone
  MIC: > 64 µg/mL and > 131 µM
[10]; IMP1, read-out: MIC TG1 alone
  MIC: > 64 µg/mL and > 131 µM
[11]; NDM1, read-out: MIC TG1 alone
  MIC: > 64 µg/mL and > 131 µM
